# Patent US12624395B2, “Process for identifying a stress state and/or for assessing the stress response level in a subject” (ADISSEO FRANCE S.A.S., priority 2019, dated 2026)
# How the values were obtained:
# [1] = test system: Ross 308 male broiler chicks; test: Stress, non-adaptation and adaptation scores from gene signatures (RT-qPCR) in the chicken-paraquat model; type: in vivo
# From the text: (§1) All experimental procedures used in the current study were approved by the Ethics and Research Committee of the institution conducting the study. A total of 144 one-day-old Ross 308 male broiler chicks, with an average body weight (BW) of 39 g, were reared from D1 to D21. They were allocated in 72 battery cages (0.5×0.42 m^2) with wire floors (6 chicks/cage) in environmentally controlled rooms. The birds were randomly assigned to treatment pens with similar starting weights. Each cage was equipped with one trough feeder and one drinker. Birds had ad libitum access to mash feeds and water during all study. Average temperature was 33° C. at placement, being reduced by 1° C. every 2 days until 23° C. to provide comfort throughout the study. The lighting program was 18 hours light and 6 hours dark during each 24 hours period throughout the trial.
# The experimental design was a completely randomized factorial design, consisting of a placebo or oxidative stress groups thus two experimental treatments, and 12 replicates per treatment with 6 birds for each replicate. The oxidative stress was applied only from D7 to D14, through the supplementation of a xenobiotic, i.e. paraquat dichloride hydrate (Sigma-Aldrich Company Ltd., Dorset, UK), through the water supply system at the dose of 110 μg/mL. This dosage was achieved by using water containers, individually located in each cage. The control group received standard water (placebo) on the same period using similar containers. A starter and grower diets were provided from D1 to D7, and D8 to D21, respectively. The basal diets were standard wheat/corn-soy-based broiler diets, and were formulated to meet or exceed the nutrient requirements of broilers, as recommended by the NRC (1994). Body weight (BW) was recorded on D1, D7, D14 and D21. On D14 and D21, one bird per pen replicate of each treatment was sacrificed for tissue collection. Briefly, 100 mg of tissue (breast, liver and ileum) were immerged in 2-mL Eppendorf tubes containing 1 mL RNAlater® (Sigma-Aldrich), and kept at −20° C. until analysis. RNA extraction and purification was conducted as described in Example 1.
# To remove traces of contaminant genomic DNA, 2.5 μg of total RNA was treated with 2.5 U of DNasel (ThermoFischer) in a final volume of […] for 15 min at 25° C. Next, DNase was inhibited by addition of EDTA to a final concentration of 8 mM and incubated for 10 min at 70° C. Half of the DNase-treated RNA sample was reverse transcribed (RT), the other half was kept as no-RT control. RNA was denatured in a total volume of 17.6 μL containing 1.25 μg total RNA, 5 mM of nonanucleotide random primer (dN9) and 0.5 μM each dNTPs (Thermofischer). This mix was heated to 70° C. for 5 min in a thermocycler (SimpliAmp™, Life Technologies). Then, RT-AMV buffer (Life Sciences Advance Technology) was added together with 40 U RNAsine (Promega) and 0.25 U AMV Reverse Transcriptase (RT) (Life Sciences Advance Technology), and the volume was adjusted to 21.6 μL. Primers were hybridized by incubation at 25° C. for 15 min, and extension was conducted for 2 hours at 45° C. in thermocycler. No-RT controls were treated in parallel, but addition of AMV-RT enzyme was omitted.
# For the quantitative PCR reaction, 1 μL of cDNA sample diluted to ⅓ was mixed to 2 μL specific primers mix 2.5 mM each and 5 μL of 2× Takyon sybrgreen—No ROX (Eurogentec) in a final volume of 10 μL. Each PCR reaction was set in triplicate. Amplification was conducted on a LC480 LightCycler® Nano (Roche) using 384 well plates and the following program: 1 initial activation cycle at 95° C. for 3 min, then 45 cycles [95° C. for 10 sec; 60° C. for 15 sec; 72° C. for 15 sec]. Specificity of each amplification was monitored by fusion curve technic detecting a single peak corresponding to one single amplicon, consisting in an initial denaturation at 95° C. for 5 sec, followed by ramping from 55 to 95° C. at 0.11° C./sec, and 5 acquisitions per sec. […]
# [2] = type: in vivo, chicken; settings: paraquat-treated chickens, 110 μg/mL in water supply D7 to D14
# From the text: as §1
# The experimental design was a completely randomized factorial design, consisting of a placebo or oxidative stress groups thus two experimental treatments, and 12 replicates per treatment with 6 birds for each replicate. The oxidative stress was applied only from D7 to D14, through the supplementation of a xenobiotic, i.e. paraquat dichloride hydrate (Sigma-Aldrich Company Ltd., Dorset, UK), through the water supply system at the dose of 110 μg/mL. […] Body weight (BW) was recorded on D1, D7, D14 and D21. […]
# [3] = 4 most conserved genes signature
# [4] = twenty-six genes or four most conserved genes signature, FIG. 5, bottom
smiles,measurement,setting,value
"C[n+]1ccc(-c2cc[n+](C)cc2)cc1 [paraquat, paraquat dichloride hydrate]",Adaptation Score (%),"[1]; 4-gene signatures, mean ± SD",0.0 ± 0.0%
same,Non-adaptation Score (%),"[1]; 4-gene signatures, mean ± SD",78.2 ± 29.5%
same,Stress Score (%),"[1]; 4-gene signatures, mean ± SD",69.2 ± 21.6%
same,Adaptation Score (%),[1]; [3],0%
same,Non-adaptation Score (%),[1]; [3],100%
same,Stress Score (%),"[1]; 4 most conserved genes signature (Anxa1, Anxa2, Chac1, Postn)",75%
same,Adaptation Score (%),"[1]; 5-gene signatures, mean ± SD",0.0 ± 0.0%
same,Non-adaptation Score (%),"[1]; 5-gene signatures, mean ± SD",79.4 ± 24.8%
same,Stress Score (%),"[1]; 5-gene signatures, mean ± SD",69.2 ± 18.9%
same,Adaptation Score (%),"[1]; 6-gene signatures, mean ± SD",0.0 ± 0.0%
same,Non-adaptation Score (%),"[1]; 6-gene signatures, mean ± SD",79.8 ± 21.5%
same,Stress Score (%),"[1]; 6-gene signatures, mean ± SD",69.2 ± 16.8%
same,Adaptation Score (%),"[1]; 7-gene signatures, mean ± SD",0.0 ± 0.0%
same,Non-adaptation Score (%),"[1]; 7-gene signatures, mean ± SD",79.9 ± 19.0%
same,Stress Score (%),"[1]; 7-gene signatures, mean ± SD",69.2 ± 15.2%
same,Adaptation Score (%),"[1]; 8-gene signatures, mean ± SD",0.0 ± 0.0%
same,Non-adaptation Score (%),"[1]; 8-gene signatures, mean ± SD",80.0 ± 17.0%
same,Stress Score (%),"[1]; 8-gene signatures, mean ± SD",69.2 ± 13.8%
same,Adaptation Score (%),"[1]; 9-gene signatures, mean ± SD",0.0 ± 0.0%
same,Non-adaptation Score (%),"[1]; 9-gene signatures, mean ± SD",80.0 ± 15.4%
same,Stress Score (%),"[1]; 9-gene signatures, mean ± SD",69.2 ± 12.7%
same,Adaptation Score (%),"[1]; 10-gene signatures, mean ± SD",0.0 ± 0.0%
same,Non-adaptation Score (%),"[1]; 10-gene signatures, mean ± SD",80.0 ± 14.1%
same,Stress Score (%),"[1]; 10-gene signatures, mean ± SD",69.2 ± 11.7%
same,Adaptation Score (%),"[1]; 11-gene signatures, mean ± SD",0.0 ± 0.0%
same,Non-adaptation Score (%),"[1]; 11-gene signatures, mean ± SD",80.0 ± 13.0%
same,Stress Score (%),"[1]; 11-gene signatures, mean ± SD",69.2 ± 10.8%
same,Adaptation Score (%),"[1]; 12-gene signatures, mean ± SD",0.0 ± 0.0%
same,Non-adaptation Score (%),"[1]; 12-gene signatures, mean ± SD",80.0 ± 12.0%
same,Stress Score (%),"[1]; 12-gene signatures, mean ± SD",69.2 ± 10.0%
same,Adaptation Score (%),"[1]; 13-gene signatures, mean ± SD",0.0 ± 0.0%
same,Non-adaptation Score (%),"[1]; 13-gene signatures, mean ± SD",80.0 ± 11.0%
same,Stress Score (%),"[1]; 13-gene signatures, mean ± SD",69.2 ± 9.2%
same,Adaptation Score (%),"[1]; 14-gene signatures, mean ± SD",0.0 ± 0.0%
same,Non-adaptation Score (%),"[1]; 14-gene signatures, mean ± SD",80.0 ± 10.2%
same,Stress Score (%),"[1]; 14-gene signatures, mean ± SD",69.2 ± 8.5%
same,Adaptation Score (%),"[1]; 15-gene signatures, mean ± SD",0.0 ± 0.0%
same,Non-adaptation Score (%),"[1]; 15-gene signatures, mean ± SD",80.0 ± 9.4%
same,Stress Score (%),"[1]; 15-gene signatures, mean ± SD",69.2 ± 7.9%
same,Adaptation Score (%),"[1]; 16-gene signatures, mean ± SD",0.0 ± 0.0%
same,Non-adaptation Score (%),"[1]; 16-gene signatures, mean ± SD",80.0 ± 8.7%
same,Stress Score (%),"[1]; 16-gene signatures, mean ± SD",69.2 ± 7.3%
same,Adaptation Score (%),"[1]; 17-gene signatures, mean ± SD",0.0 ± 0.0%
same,Non-adaptation Score (%),"[1]; 17-gene signatures, mean ± SD",80.0 ± 7.9%
same,Stress Score (%),"[1]; 17-gene signatures, mean ± SD",69.2 ± 6.7%
same,Adaptation Score (%),"[1]; 18-gene signatures, mean ± SD",0.0 ± 0.0%
same,Non-adaptation Score (%),"[1]; 18-gene signatures, mean ± SD",80.0 ± 7.3%
same,Stress Score (%),"[1]; 18-gene signatures, mean ± SD",69.2 ± 6.2%
same,Adaptation Score (%),"[1]; 19-gene signatures, mean ± SD",0.0 ± 0.0%
same,Non-adaptation Score (%),"[1]; 19-gene signatures, mean ± SD",80.0 ± 6.6%
same,Stress Score (%),"[1]; 19-gene signatures, mean ± SD",69.2 ± 5.6%
same,Adaptation Score (%),"[1]; 20-gene signatures, mean ± SD",0.0 ± 0.0%
same,Non-adaptation Score (%),"[1]; 20-gene signatures, mean ± SD",80.0 ± 6.0%
same,Stress Score (%),"[1]; 20-gene signatures, mean ± SD",69.2 ± 5.0%
same,Adaptation Score (%),"[1]; 21-gene signatures, mean ± SD",0.0 ± 0.0%
same,Non-adaptation Score (%),"[1]; 21-gene signatures, mean ± SD",80.0 ± 5.3%
same,Stress Score (%),"[1]; 21-gene signatures, mean ± SD",69.2 ± 4.5%
same,Adaptation Score (%),"[1]; 22-gene signatures, mean ± SD",0.0 ± 0.0%
same,Non-adaptation Score (%),"[1]; 22-gene signatures, mean ± SD",80.0 ± 4.6%
same,Stress Score (%),"[1]; 22-gene signatures, mean ± SD",69.2 ± 3.9%
same,Adaptation Score (%),"[1]; 23-gene signatures, mean ± SD",0.0 ± 0.0%
same,Non-adaptation Score (%),"[1]; 23-gene signatures, mean ± SD",80.0 ± 3.9%
same,Stress Score (%),"[1]; 23-gene signatures, mean ± SD",69.2 ± 3.3%
same,Adaptation Score (%),"[1]; 24-gene signatures, mean ± SD",0.0 ± 0.0%
same,Non-adaptation Score (%),"[1]; 24-gene signatures, mean ± SD",80.0 ± 3.1%
same,Stress Score (%),"[1]; 24-gene signatures, mean ± SD",69.2 ± 2.7%
same,Adaptation Score (%),"[1]; 25-gene signatures, mean ± SD",0.0 ± 0.0%
same,Non-adaptation Score (%),"[1]; 25-gene signatures, mean ± SD",80.0 ± 2.2%
same,Stress Score (%),"[1]; 25-gene signatures, mean ± SD",69.2 ± 1.8%
same,Adaptation Score (%),"[1]; 26-gene signature, mean ± SD",0.0 ± 0.0%
same,Non-adaptation Score (%),"[1]; 26-gene signature, mean ± SD",80.0 ± 0.0%
same,Stress Score (%),"[1]; 26-gene signature, mean ± SD",69.2 ± 0.0%
same,non-adaptation (NA) score,[1]; [4],high
same,stress (S) score,[1]; [4],high
same,body weight change,[2],weight-loss
